In ChEMBL document CHEMBL1201862, “PubChem BioAssay data set” (2004):
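Method: 48-hour compound exposure of cells in 96-well plates, five concentrations, linear interpolation of endpoints. Abbreviation: GI50, concentration required for 50% inhibition of growth.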 The source made the active and inactive calls. Cut-off read from the data, not from the text of the source: active = GI50 up to about 1.1 µM and inactive = higher.

Experiments:
Assay in all cases: NCI anticancer screen, dose series, 48 h
OVCAR-8 = system: OVCAR-8
NCI-H522 = system: NCI-H522
NCI-H226 = system: NCI-H226
SK-MEL-2 = system: SK-MEL-2
A549 = system: A549
786-0 = system: 786-0
RXF 393 = system: RXF 393
UACC-257 = system: UACC-257
NCI-H23 = system: NCI-H23
KM12 = system: KM12
SK-MEL-28 = system: SK-MEL-28
RPMI-8226 = system: RPMI-8226
SNB-19 = system: SNB-19
MOLT-4 = system: MOLT-4
SN12C = system: SN12C
K562 = system: K562
SW-620 = system: SW-620
PC-3 = system: PC-3
MCF7 = system: MCF7

Measured: GI50

COc1ccc([C@H]2CC(=O)NCCCCN2)cc1
inactive: OVCAR-8 > 100 µM | NCI-H522 > 100 µM | NCI-H226 > 100 µM | SK-MEL-2 > 100 µM | A549 > 100 µM | 786-0 > 100 µM | RXF 393 > 100 µM | UACC-257 > 100 µM | NCI-H23 > 100 µM | KM12 > 100 µM | SK-MEL-28 > 100 µM | RPMI-8226 > 100 µM | SNB-19 > 100 µM | MOLT-4 > 100 µM | SN12C > 100 µM | K562 > 100 µM

CCN(CC)CCn1c2ccccc2c(=O)c2c(OC)ccc(OC)c21
inactive: SW-620 6.59 µM | OVCAR-8 48.4 µM | NCI-H522 > 96.4 µM | NCI-H226 60.3 µM | SK-MEL-2 > 100 µM | A549 63.7 µM | 786-0 69.5 µM | RXF 393 32.4 µM | UACC-257 45.8 µM | NCI-H23 > 100 µM | KM12 56.9 µM | RPMI-8226 92.3 µM | SNB-19 > 100 µM | MOLT-4 36.8 µM | SN12C 52.4 µM | K562 35.3 µM

Cc1ccc(NC(=O)CCC(CC(=O)C(C)(C)C)=NNC(=O)C(=O)NN)cc1C
inactive: SW-620 > 100 µM | OVCAR-8 > 100 µM | NCI-H522 > 100 µM | NCI-H226 > 100 µM | SK-MEL-2 > 100 µM | A549 > 100 µM | 786-0 > 100 µM | RXF 393 > 100 µM | UACC-257 > 100 µM | NCI-H23 > 100 µM | KM12 > 100 µM | SK-MEL-28 > 100 µM | RPMI-8226 > 100 µM | SNB-19 > 100 µM | MOLT-4 > 100 µM | SN12C > 100 µM | K562 > 100 µM

CC(=O)OCC1OC(n2c3c(c(-c4ccc(Cl)cc4)c(C#N)c2=S)CCCC3)C(OC(C)=O)C(OC(C)=O)C1OC(C)=O (stereo unspecified)
inactive: OVCAR-8 > 100 µM | NCI-H522 40.7 µM | NCI-H226 36.6 µM | SK-MEL-2 30.6 µM | A549 36.1 µM | 786-0 80.7 µM | RXF 393 23.5 µM | PC-3 25.5 µM | UACC-257 51.9 µM | NCI-H23 46.5 µM | KM12 71.4 µM | SK-MEL-28 32.4 µM | SNB-19 41.8 µM | MCF7 > 100 µM | MOLT-4 25.1 µM | SN12C 88.5 µM | K562 44 µM

Cc1ccc(/N=N/c2ccc(N(CCC#N)CCC#N)cc2C)c(Br)c1
inactive: SW-620 21.9 µM | OVCAR-8 49.3 µM | NCI-H522 18.5 µM | NCI-H226 17.2 µM | SK-MEL-2 16.9 µM | A549 21.5 µM | 786-0 17 µM | RXF 393 9.27 µM | UACC-257 26 µM | NCI-H23 21.3 µM | KM12 3.5 µM | SK-MEL-28 51.3 µM | RPMI-8226 4.33 µM | SNB-19 32.4 µM | MOLT-4 7.5 µM | SN12C 19.4 µM | K562 3.13 µM

O=c1c2c(oc3ccccc13)-c1ccccc1OC2
inactive: SW-620 67.8 µM | OVCAR-8 27.9 µM | NCI-H522 > 100 µM | NCI-H226 > 100 µM | SK-MEL-2 > 100 µM | A549 96.6 µM | 786-0 24.4 µM | PC-3 > 100 µM | UACC-257 > 100 µM | NCI-H23 59.7 µM | KM12 > 100 µM | RPMI-8226 > 100 µM | MCF7 > 100 µM | MOLT-4 > 100 µM | SN12C 53.3 µM | K562 > 100 µM

Clc1ccc(/N=C/c2cc3cc(Br)ccc3nc2Cl)cc1
inactive: SW-620 14.2 µM | OVCAR-8 28.1 µM | NCI-H522 15.1 µM | NCI-H226 > 50 µM | SK-MEL-2 10.8 µM | 786-0 > 50 µM | RXF 393 > 50 µM | PC-3 15.7 µM | UACC-257 34.1 µM | NCI-H23 > 50 µM | KM12 20 µM | SK-MEL-28 46.5 µM | RPMI-8226 13.2 µM | MOLT-4 13.5 µM | SN12C > 50 µM | K562 4.34 µM

COC(=O)C1=NC(=S)NC(c2ccccc2)C1c1nc2ccccc2o1 (stereo unspecified)
inactive: SW-620 > 50 µM | OVCAR-8 > 50 µM | NCI-H522 > 50 µM | NCI-H226 > 50 µM | SK-MEL-2 > 50 µM | A549 > 50 µM | 786-0 > 50 µM | RXF 393 20.1 µM | UACC-257 > 50 µM | NCI-H23 > 50 µM | KM12 > 50 µM | RPMI-8226 > 50 µM | SNB-19 > 50 µM | MOLT-4 > 50 µM | SN12C > 50 µM | K562 > 50 µM

CC1=NC(C)(C)N(O)C1(C)C
inactive: SW-620 > 100 µM | OVCAR-8 > 100 µM | NCI-H522 > 100 µM | NCI-H226 > 100 µM | SK-MEL-2 > 100 µM | A549 > 100 µM | 786-0 > 100 µM | RXF 393 > 100 µM | PC-3 > 100 µM | NCI-H23 > 100 µM | KM12 > 100 µM | SK-MEL-28 > 100 µM | RPMI-8226 > 100 µM | SNB-19 > 100 µM | MCF7 > 100 µM | MOLT-4 > 100 µM | SN12C > 100 µM | K562 > 100 µM

Cc1csc(CCC(N)C(=O)O)n1 (stereo unspecified)
inactive: SW-620 > 100 µM | OVCAR-8 > 100 µM | NCI-H522 > 100 µM | NCI-H226 > 100 µM | A549 > 100 µM | 786-0 > 100 µM | RXF 393 > 100 µM | UACC-257 > 100 µM | NCI-H23 > 100 µM | KM12 > 100 µM | SK-MEL-28 > 100 µM | RPMI-8226 > 100 µM | MOLT-4 > 100 µM | SN12C > 100 µM | K562 > 100 µM

CC(=O)OCC1=CC2CCC3C(C)(CCC[C@]3(C)COC(C)=O)C23CC[C@H]1C3 (stereo partly specified)
inactive: SW-620 56.6 µM | OVCAR-8 53.7 µM | NCI-H522 18.8 µM | NCI-H226 68.1 µM | SK-MEL-2 33.8 µM | A549 64 µM | 786-0 57.3 µM | RXF 393 46.5 µM | UACC-257 37.7 µM | NCI-H23 33.9 µM | KM12 33.7 µM | SK-MEL-28 > 100 µM | RPMI-8226 21.6 µM | SNB-19 68.4 µM | MOLT-4 20.1 µM | SN12C 45.2 µM | K562 27.2 µM

CCNC1CC(C(C)(C)NCC)CC=C1C (stereo unspecified)
inactive: SW-620 > 100 µM | OVCAR-8 > 100 µM | NCI-H522 > 100 µM | A549 > 100 µM | 786-0 > 100 µM | PC-3 > 100 µM | UACC-257 > 100 µM | NCI-H23 > 100 µM | KM12 > 100 µM | SK-MEL-28 > 100 µM | SNB-19 > 100 µM | MCF7 > 100 µM | MOLT-4 > 100 µM | SN12C > 100 µM | K562 > 100 µM
